Assays:
antibody ATZ 3.1 = assay: Antibody specificity ELISA (competition of free drug with atazanavir-BSA conjugate), antibody ATZ 3.1; format: binding, mouse; details: for ED50 (M/L): free drug concentration giving 50% of binding in absence of free drug, 4-parameter logistic fit; for % Cross Rx: relative to atazanavir ED50
Method: (§1) Screening of growing hybridomas was carried out by an ELISA using the atazanavir-BSA conjugate (7) and free atazanavir. Microplates were coated with 50 μL atazanavir-BSA conjugate at 1 μg/mL in 0.1 M carbonate buffer, pH 9.5 for 1 hour at 37° C. (humidified). The plates were then emptied and filled with a post-coat solution consisting of Tris buffer, 1% gelatin hydrolysate, 2% sucrose, and 0/17% TWEEN 20 (all from Sigma Chemical Co.). The plates were incubated for an additional 1 hour at 37° C. (humidified) after which they were washed with phosphate-buffered saline containing 0.1% TWEEN 20. The plates were then filled with a 2% sucrose solution in 0.15 M Tris, pH 7.2–7.4 briefly, then emptied and allowed to air dry at room temperature. When dried, the plates were packed in zip-lock bags containing several desiccant pillows, sealed, and stored at 4° C. until use.
(§2) When the growing clones were judged ready for testing, 25 μL of supernatant from the wells were taken and transferred to 96-well flexible plates. Culture medium was added to each well to provide a 1:10 dilution of the media sample. Two atazanavir-BSA coated wells were used for each culture well tested. One well received 25 μL of PBS buffer, the other received 25 μL of PBS containing atazanavir drug at a concentration of 800 ng/ml. Twenty-five microliters of the diluted sample were transferred to each of two of the coated wells above. The plates were incubated covered for 1 hour at 37° C., then washed with PBS-TWEEN. The wells were then filled with 100 μL of goat anti-mouse IgG-HRP conjugate (Zymed Labs) diluted 1:5,000 in PBS-TWEEN and the plates re-incubated for 1 hour. The plates were then washed again, and 100 μL of K-BLUE SUBSTRATE (Neogen Corp) were added to each well. This was allowed to develop for 5–15 minutes, the reaction being stopped by the addition of 100 μL of 1 N HCl. Color was read via a microplate reader at 450 nm and collected by computer for analysis. Criteria for selection were binding to the well in which the PBS was added and significant inhibition of binding in the well receiving the free drug.
(§3) The antibody containing culture supernatants from the expansion cultures were subjected to specificity analysis by the following procedure. First, the titer appropriate for analysis was determined by dilution analysis. A dilution of antibody providing for approximately 50% of maximal binding was selected for proceeding to the next step. Second, binding to the atazanavir-BSA conjugate was examined at the above antibody dilution, in the presence of varying amounts of seven HIV protease inhibitor drugs. The data was subjected to analysis by non-linear regression curve fitting to a 4-parameter logistic function. That parameter which describes the concentration of the free drug which corresponds to 50% of the binding in the absence of free drug is termed the ED50 for that drug. The specificity of the antibody can thus be described by comparing the ED50 of the cognate drug, atazanavir, or atz ED50 with the other values for other drugs fitted from those data according to the following equation (using nelfinavir data for this example):
(§4) [formula] The four parameter logistic function used is
(§5) [formula] where S is the curvature parameter, ODmax is the optical density with 0 drug concentration, ODmin is the optical density of the background of the instrument, and ODx is the optical density observed at drug concentration X in moles/liter (M/L).
(§6) Atazanavir metabolite is 4-pyridin-2-yl-benzoic acid (Synchem, Inc.).

antibody ATZ 4.1 = assay: Antibody specificity ELISA (competition of free drug with atazanavir-BSA conjugate), antibody ATZ 4.1; format: binding, mouse; details: for ED50 (M/L): free drug concentration giving 50% of binding in absence of free drug, 4-parameter logistic fit; for % Cross Rx: relative to atazanavir ED50
Method: as §1, §2, §3, §4, §5, §6

Structure (SMILES)	ED50 (M/L) (antibody ATZ 3.1)	% Cross Rx (antibody ATZ 3.1) [%]	ED50 (M/L) (antibody ATZ 4.1)	% Cross Rx (antibody ATZ 4.1) [%]
CC(C)CN(C[C@@H](O)[C@H](Cc1ccccc1)NC(=O)O[C@H]1CCOC1)S(=O)(=O)c1ccc(N)cc1 [Amprenavir, amprenavir]	>2 × 10^−6 M/L	<1	>2 × 10^−6 M/L	<1
O=C(O)c1ccc(-c2ccccn2)cc1 [Atazanavir metabolite, 4-pyridin-2-yl-benzoic acid]	>2 × 10^−6 M/L	<1	>2 × 10^−6 M/L	<1
COC(=O)N[C@H](C(=O)N[C@@H](Cc1ccccc1)[C@@H](O)CN(Cc1ccc(-c2ccccn2)cc1)NC(=O)[C@@H](NC(=O)OC)C(C)(C)C)C(C)(C)C [Atazanavir, atazanavir]	7 × 10^−7 M/L	100	4.4 × 10^−6 M/L	100
CC(C)(C)NC(=O)[C@@H]1CN(Cc2cccnc2)CCN1C[C@@H](O)C[C@@H](Cc1ccccc1)C(=O)N[C@H]1c2ccccc2C[C@H]1O [Indinavir, indinavir]	>2 × 10^−6 M/L	<1	>2 × 10^−6 M/L	<1
Cc1cccc(C)c1OCC(=O)N[C@@H](Cc1ccccc1)[C@@H](O)C[C@H](Cc1ccccc1)NC(=O)[C@H](C(C)C)N1CCCNC1=O [Lopinavir, lopinavir]	>2 × 10^−6 M/L	<1	>2 × 10^−6 M/L	<1
Cc1c(O)cccc1C(=O)N[C@@H](CSc1ccccc1)[C@H](O)CN1C[C@H]2CCCC[C@H]2C[C@H]1C(=O)NC(C)(C)C [Nelfinavir, nelfinavir]	>2 × 10^−6 M/L	<1	>2 × 10^−6 M/L	<1
CC(C)c1nc(CN(C)C(=O)N[C@H](C(=O)N[C@@H](Cc2ccccc2)C[C@H](O)[C@H](Cc2ccccc2)NC(=O)OCc2cncs2)C(C)C)cs1 [Ritonavir, ritonavir]	>2 × 10^−6 M/L	<1	>2 × 10^−6 M/L	<1
CC(C)(C)NC(=O)[C@@H]1C[C@@H]2CCCC[C@@H]2CN1C[C@@H](O)[C@H](Cc1ccccc1)NC(=O)[C@H](CC(N)=O)NC(=O)c1ccc2ccccc2n1 [Saquinavir, saquinavir]	>2 × 10^−6 M/L	<1	>2 × 10^−6 M/L	<1
